Reference: ChEMBL document CHEMBL3045696, “CsFCelite catalyzed facile N-alkylation of 2(3H)-benzoxazolones and antimicrobial properties of 2-substituted benzoxazole and 3-substituted-2(3H)-benzoxazolone derivatives” (2011)
Values after ≈ are worked out from the molar mass of the structure shown. Active and inactive are the calls of the source. The calls are words filed in the database; no cut-off is given here.

How the values were obtained:
Format in all cases: functional
Bacillus subtilis = test: Antimicrobial activity against Bacillus subtilis MTCC 441 by broth dilution method
Candida albicans [1] = test: Antimicrobial activity against Candida albicans MTCC 227 at 100 ug after 48 hr by agar well diffusion method; settings: for zone of inhibition at 100 µg/disc: MTCC 227, 48 h, read-out: IZ
Saccharomyces cerevisiae [2] = test: Antimicrobial activity against Saccharomyces cerevisiae MTCC 36 at 150 ug after 48 hr by agar well diffusion method; settings: for zone of inhibition at 150 µg/disc: MTCC 36, 48 h, read-out: IZ
Escherichia coli = test: Antimicrobial activity against Escherichia coli MTCC 443 by broth dilution method
Aspergillus niger [3] = test: Antimicrobial activity against Aspergillus niger MTCC 282 at 100 ug after 48 hr by agar well diffusion method; settings: for zone of inhibition at 100 µg/disc: MTCC 282, 48 h, read-out: IZ
Staphylococcus aureus = test: Antimicrobial activity against Staphylococcus aureus MTCC 96 by broth dilution method
Rhizopus arrhizus [4] = test: Antimicrobial activity against Rhizopus oryzae MTCC 262 at 150 ug after 48 hr by agar well diffusion method; settings: for zone of inhibition at 150 µg/disc: MTCC 262, 48 h, read-out: IZ
Pseudomonas aeruginosa = test: Antimicrobial activity against Pseudomonas aeruginosa MTCC 741 by broth dilution method
Saccharomyces cerevisiae [5] = test: Antimicrobial activity against Saccharomyces cerevisiae MTCC 36 at 100 ug after 48 hr by agar well diffusion method; settings: for zone of inhibition at 100 µg/disc: MTCC 36, 48 h, read-out: IZ
Klebsiella pneumoniae = test: Antimicrobial activity against Klebsiella pneumoniae MTCC 618 by broth dilution method
Rhizopus arrhizus [6] = test: Antimicrobial activity against Rhizopus oryzae MTCC 262 at 100 ug after 48 hr by agar well diffusion method
Aspergillus niger [7] = test: Antimicrobial activity against Aspergillus niger MTCC 282 at 150 ug after 48 hr by agar well diffusion method; settings: for zone of inhibition at 150 µg/disc: MTCC 282, 48 h, read-out: IZ
[8] = tested on: Staphylococcus epidermidis; test: Antimicrobial activity against Staphylococcus epidermidis by broth dilution method
Candida albicans [9] = test: Antimicrobial activity against Candida albicans MTCC 227 at 150 ug after 48 hr by agar well diffusion method; settings: for zone of inhibition at 150 µg/disc: MTCC 227, 48 h, read-out: IZ
Rhizopus arrhizus [10] = test: Antimicrobial activity against Rhizopus oryzae MTCC 262 at 50 ug after 48 hr by agar well diffusion method; settings: MTCC 262, 48 h, read-out: IZ
Candida albicans [11] = test: Antimicrobial activity against Candida albicans MTCC 227 at 50 ug after 48 hr by agar well diffusion method; settings: MTCC 227, 48 h, read-out: IZ
Aspergillus niger [12] = test: Antimicrobial activity against Aspergillus niger MTCC 282 at 50 ug after 48 hr by agar well diffusion method; settings: MTCC 282, 48 h, read-out: IZ
Saccharomyces cerevisiae [13] = test: Antimicrobial activity against Saccharomyces cerevisiae MTCC 36 at 50 ug after 48 hr by agar well diffusion method; settings: MTCC 36, 48 h, read-out: IZ

Structure (SMILES) | MIC (Bacillus subtilis) [µg/mL] | Activity (Candida albicans [1]) | Activity (Saccharomyces cerevisiae [2]) | MIC (Escherichia coli) [µg/mL] | Activity (Aspergillus niger [3]) | MIC (Staphylococcus aureus) [µg/mL] | Activity (Rhizopus arrhizus [4]) | MIC (Pseudomonas aeruginosa) [µg/mL] | Activity (Saccharomyces cerevisiae [5]) | MIC (Klebsiella pneumoniae) [µg/mL] | Activity (Rhizopus arrhizus [6]) | Activity (Aspergillus niger [7]) | MIC [8] [µg/mL] | zone of inhibition at 150 µg/disc (Candida albicans [9]) [mm] | Activity (Candida albicans [9]) | zone of inhibition at 150 µg/disc (Saccharomyces cerevisiae [2]) [mm] | zone of inhibition at 100 µg/disc (Aspergillus niger [3]) [mm] | zone of inhibition at 100 µg/disc (Saccharomyces cerevisiae [5]) [mm] | zone of inhibition at 150 µg/disc (Aspergillus niger [7]) [mm] | further results
c1ccc(N2CCN(c3nc4ccccc4o3)CC2)cc1 | 150 (≈ 537 µM) | inactive | inactive | 75 (≈ 268 µM) | inactive | 150 (≈ 537 µM) | inactive | 75 (≈ 268 µM) | inactive | 150 (≈ 537 µM) | inactive | inactive | 150 (≈ 537 µM) | 9 |  |  |  |  |  | 
OCCN1CCN(c2nc3ccccc3o2)CC1 | 150 (≈ 607 µM) | inactive | inactive | 150 (≈ 607 µM) | inactive | 75 (≈ 303 µM) | inactive | 75 (≈ 303 µM) | inactive | 75 (≈ 303 µM) | inactive | inactive | 150 (≈ 607 µM) |  | inactive |  |  |  |  | 
CC(C)=CCn1c(=O)oc2ccc(Cl)cc21 | 150 (≈ 631 µM) |  |  | 150 (≈ 631 µM) |  | 150 (≈ 631 µM) |  | 75 (≈ 316 µM) |  | 150 (≈ 631 µM) | inactive |  | 75 (≈ 316 µM) | 10 |  | 10 | 8 | 8 | 11 | zone of inhibition at 100 µg/disc (Candida albicans [1]): 7 mm; zone of inhibition at 150 µg/disc (Rhizopus arrhizus [4]): 9 mm
c1ccc2oc(N3CCCCC3)nc2c1 | 150 (≈ 742 µM) |  |  | 150 (≈ 742 µM) |  | 150 (≈ 742 µM) |  | 150 (≈ 742 µM) |  | 150 (≈ 742 µM) |  |  | 150 (≈ 742 µM) | 12 |  | 12 | 8 | 9 | 10 | zone of inhibition at 100 µg/disc (Candida albicans [1]): 9 mm; zone of inhibition at 150 µg/disc (Rhizopus arrhizus [4]): 11 mm; zone of inhibition at 100 µg/disc (Rhizopus arrhizus [6]; MTCC 262, 48 h, read-out: IZ): 8 mm
C=CCn1c(=O)oc2ccc(Cl)cc21 | 150 (≈ 716 µM) | inactive | inactive | 150 (≈ 716 µM) |  | 150 (≈ 716 µM) | inactive | 75 (≈ 358 µM) | inactive | 37.5 (≈ 179 µM) | inactive |  | 150 (≈ 716 µM) | 8 |  |  | 8 |  | 10 | 
Clc1cccc(N2CCN(c3nc4ccccc4o3)CC2)c1 | 150 (≈ 478 µM) | inactive | inactive | 150 (≈ 478 µM) | inactive | 75 (≈ 239 µM) | inactive | 150 (≈ 478 µM) | inactive | 150 (≈ 478 µM) | inactive | inactive | 150 (≈ 478 µM) |  | inactive |  |  |  |  | 
c1ccc(CN2CCN(c3nc4ccccc4o3)CC2)cc1 | 150 (≈ 511 µM) | inactive |  | 150 (≈ 511 µM) | inactive | 150 (≈ 511 µM) |  | 75 (≈ 256 µM) |  | 150 (≈ 511 µM) | inactive |  | 75 (≈ 256 µM) | 9 |  | 10 |  | 12 | 9 | zone of inhibition at 150 µg/disc (Rhizopus arrhizus [4]): 9 mm
C[C@@H]1[C@H](O)[C@@H](C)/C=C/C=C/C=C/C=C/C=C/C=C/C=C/[C@H](O[C@@H]2O[C@H](C)[C@@H](O)[C@H](N)[C@@H]2O)C[C@@H]2O[C@](O)(C[C@@H](O)C[C@@H](O)[C@H](O)CC[C@@H](O)C[C@@H](O)CC(=O)O[C@H]1C)C[C@H](O)[C@H]2C(=O)O [AMPHOTERICIN B] |  |  |  |  |  |  |  |  |  |  |  |  |  |  |  |  |  |  |  | zone of inhibition at 50 µg/disc (Rhizopus arrhizus [10]): 24 mm; zone of inhibition at 50 µg/disc (Candida albicans [11]): 23.5 mm; zone of inhibition at 50 µg/disc (Aspergillus niger [12]): 25 mm; zone of inhibition at 50 µg/disc (Saccharomyces cerevisiae [13]): 22 mm
CC1CN(c2nc3ccccc3o2)CCN1 (centres undefined) | 150 (≈ 690 µM) | inactive | inactive | 75 (≈ 345 µM) | inactive | 150 (≈ 690 µM) | inactive | 150 (≈ 690 µM) | inactive | 150 (≈ 690 µM) | inactive | inactive | 150 (≈ 690 µM) |  | inactive |  |  |  |  | 
CN1CCN(c2nc3ccccc3o2)CC1 | 150 (≈ 690 µM) | inactive | inactive | 150 (≈ 690 µM) | inactive | 150 (≈ 690 µM) | inactive | 150 (≈ 690 µM) | inactive | 150 (≈ 690 µM) | inactive | inactive | 75 (≈ 345 µM) |  | inactive |  |  |  |  | 
CCN1CCN(c2nc3ccccc3o2)CC1 | 150 (≈ 649 µM) |  |  | 150 (≈ 649 µM) |  | 150 (≈ 649 µM) | inactive | 150 (≈ 649 µM) |  | 75 (≈ 324 µM) | inactive |  | 75 (≈ 324 µM) | 10 |  | 9 | 9 | 7 | 12 | zone of inhibition at 100 µg/disc (Candida albicans [1]): 8 mm
